Each block holds one molecule with its values, some of them ahead of it.
Tested on: 379773-124-R-J2-PDC complex spheroids, viability % test/control
Test: Anticancer human tumor 379773-124-R-J2-PDC patient-derived endometrial carcinoma cell line growth inhibition [CLK]
Conditions: for IC50: curve of first compound; for viability, T/C: stronger effect = lower value
In short: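 Multi-cell-type spheroids combined patient-derived tumor cells with HUVEC endothelial cells and human mesenchymal stem cells. Paired agents were dosed in half-log steps down from about clinical Cmax, or from 10 microM where Cmax was unknown.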

[1] = second compound 0.0316 µM, first compound 0.0316 µM
[2] = second compound 0.0316 µM, first compound 0.1 µM
[3] = second compound 0.0316 µM, first compound 0.316 µM
[4] = second compound 0.0316 µM, first compound 1 µM
[5] = second compound 0.0316 µM, first compound 3.16 µM
[6] = second compound 0.0316 µM, first compound 10 µM
[7] = second compound 0.1 µM, first compound 0.0316 µM
[8] = second compound 0.1 µM, first compound 0.1 µM
[9] = second compound 0.1 µM, first compound 0.316 µM
[10] = second compound 0.1 µM, first compound 1 µM
[11] = second compound 0.1 µM, first compound 3.16 µM
[12] = second compound 0.1 µM, first compound 10 µM
[13] = second compound 0.316 µM, first compound 0.0316 µM
[14] = second compound 0.316 µM, first compound 0.1 µM
[15] = second compound 0.316 µM, first compound 0.316 µM
[16] = second compound 0.316 µM, first compound 1 µM
[17] = second compound 0.316 µM, first compound 3.16 µM
[18] = second compound 0.316 µM, first compound 10 µM
[19] = second compound 1 µM, first compound 0.0316 µM
[20] = second compound 1 µM, first compound 0.1 µM
[21] = second compound 1 µM, first compound 0.316 µM
[22] = second compound 1 µM, first compound 1 µM
[23] = second compound 1 µM, first compound 3.16 µM
[24] = second compound 1 µM, first compound 10 µM
[25] = second compound 3.16 µM, first compound 0.0316 µM
[26] = second compound 3.16 µM, first compound 0.1 µM
[27] = second compound 3.16 µM, first compound 0.316 µM
[28] = second compound 3.16 µM, first compound 1 µM
[29] = second compound 3.16 µM, first compound 3.16 µM
[30] = second compound 3.16 µM, first compound 10 µM
[31] = second compound 10 µM, first compound 0.0316 µM
[32] = second compound 10 µM, first compound 0.1 µM
[33] = second compound 10 µM, first compound 0.316 µM
[34] = second compound 10 µM, first compound 1 µM
[35] = second compound 10 µM, first compound 3.16 µM
[36] = second compound 10 µM, first compound 10 µM
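Also: compound exposure lasted seven days before the viability readout.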
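For viability, T/C in this document: 100% = DMSO vehicle control wells.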

Structure (SMILES): Nc1ccccc1NC(=O)c1ccc(CNC(=O)OCc2cccnc2)cc1 + CN1CCN(c2cc(C(=O)Nc3cc4cc(-c5cnn(C)c5)ccc4cn3)ccn2)CC1
IC50 (second compound 0.0316 µM): 3110 nM | IC50 (second compound 0.1 µM): 1970 nM | IC50 (second compound 0.316 µM): < 31.6 nM | IC50 (second compound 1 µM): < 31.6 nM | IC50 (second compound 3.16 µM): < 31.6 nM | IC50 (second compound 10 µM): < 31.6 nM | viability, T/C [1]: 89.8% | viability, T/C [2]: 92.6% | viability, T/C [3]: 113% | viability, T/C [4]: 104% | viability, T/C [5]: 49.1% | viability, T/C [6]: 10.4% | viability, T/C [7]: 82.2% | viability, T/C [8]: 81% | viability, T/C [9]: 111% | viability, T/C [10]: 66.2% | viability, T/C [11]: 36% | viability, T/C [12]: 5.29% | viability, T/C [13]: 21.2% | viability, T/C [14]: 27.6% | viability, T/C [15]: 17.5% | viability, T/C [16]: 13.2% | viability, T/C [17]: 4.61% | viability, T/C [18]: 0.06% | viability, T/C [19]: 0.13% | viability, T/C [20]: 0.25% | viability, T/C [21]: 0.3% | viability, T/C [22]: 1.14% | viability, T/C [23]: 0.04% | viability, T/C [24]: 0.92% | viability, T/C [25]: 0.08% | viability, T/C [26]: 0.1% | viability, T/C [27]: 0.08% | viability, T/C [28]: 1.25% | viability, T/C [29]: 0.1% | viability, T/C [30]: 0.09% | viability, T/C [31]: 0.15% | viability, T/C [32]: 0.81% | viability, T/C [33]: 0.62% | viability, T/C [34]: 1.15% | viability, T/C [35]: 1.4% | viability, T/C [36]: 0.15%

IC50 (second compound 0.0316 µM): 2020 nM | IC50 (second compound 0.1 µM): < 31.6 nM | IC50 (second compound 0.316 µM): < 31.6 nM | IC50 (second compound 1 µM): < 31.6 nM | IC50 (second compound 3.16 µM): < 31.6 nM | IC50 (second compound 10 µM): < 31.6 nM
Structure (SMILES): C=C(F)C(=O)N1CCN(c2nc(OCC3CCCN3C)nc3c2CCN(c2cccc4cccc(Cl)c24)C3)CC1CC#N (stereo unspecified) + CNC(=O)c1ccc(Nc2nc(OC3CCCC3)c3c(-c4ccc5nc(C)oc5c4)c[nH]c3n2)c(OC)c1
viability, T/C [1]: 69.1% | viability, T/C [2]: 63.1% | viability, T/C [3]: 72.3% | viability, T/C [4]: 78% | viability, T/C [5]: 36.7% | viability, T/C [6]: 0.16% | viability, T/C [7]: 35.7% | viability, T/C [8]: 42.1% | viability, T/C [9]: 42.7% | viability, T/C [10]: 39.8% | viability, T/C [11]: 26.7% | viability, T/C [12]: 0.13% | viability, T/C [13]: 37.1% | viability, T/C [14]: 41.4% | viability, T/C [15]: 32.4% | viability, T/C [16]: 39% | viability, T/C [17]: 16.2% | viability, T/C [18]: 0.17% | viability, T/C [19]: 25.5% | viability, T/C [20]: 31.4% | viability, T/C [21]: 34.9% | viability, T/C [22]: 34.5% | viability, T/C [23]: 10.4% | viability, T/C [24]: 0.13% | viability, T/C [25]: 30.2% | viability, T/C [26]: 35.3% | viability, T/C [27]: 35.7% | viability, T/C [28]: 35% | viability, T/C [29]: 14.3% | viability, T/C [30]: 2.42% | viability, T/C [31]: 31.6% | viability, T/C [32]: 32.9% | viability, T/C [33]: 27.7% | viability, T/C [34]: 27.3% | viability, T/C [35]: 9.27% | viability, T/C [36]: 0.53%

Structure (SMILES): CC1COCCN1c1cc(C2(S(C)(=N)=O)CC2)nc(-c2ccnc3[nH]ccc23)n1 (stereo unspecified) + CN1CCN(c2cc(C(=O)Nc3cc4cc(-c5cnn(C)c5)ccc4cn3)ccn2)CC1
IC50 (second compound 0.0316 µM): 2500 nM | IC50 (second compound 0.1 µM): 2820 nM | IC50 (second compound 0.316 µM): < 31.6 nM | IC50 (second compound 1 µM): < 31.6 nM | IC50 (second compound 3.16 µM): < 31.6 nM | IC50 (second compound 10 µM): < 31.6 nM | viability, T/C [1]: 98.2% | viability, T/C [2]: 95.1% | viability, T/C [3]: 80.2% | viability, T/C [4]: 74% | viability, T/C [5]: 42.8% | viability, T/C [6]: 17.2% | viability, T/C [7]: 84.2% | viability, T/C [8]: 75.7% | viability, T/C [9]: 77.5% | viability, T/C [10]: 64.9% | viability, T/C [11]: 49.3% | viability, T/C [12]: 12.5% | viability, T/C [13]: 21.9% | viability, T/C [14]: 26.2% | viability, T/C [15]: 20.1% | viability, T/C [16]: 15.6% | viability, T/C [17]: 10.6% | viability, T/C [18]: 3.29% | viability, T/C [19]: 0.11% | viability, T/C [20]: 0.2% | viability, T/C [21]: 0.96% | viability, T/C [22]: 2.48% | viability, T/C [23]: 0.1% | viability, T/C [24]: 0.06% | viability, T/C [25]: 1.57% | viability, T/C [26]: 1.16% | viability, T/C [27]: 0.14% | viability, T/C [28]: 0.1% | viability, T/C [29]: 0.12% | viability, T/C [30]: 0.1% | viability, T/C [31]: 0.14% | viability, T/C [32]: 0.36% | viability, T/C [33]: 1.74% | viability, T/C [34]: 0.18% | viability, T/C [35]: 3% | viability, T/C [36]: 0.19%
